Data published in US6967196B1, “Sulfonamide compounds and uses thereof” (Bristol-Myers Squibb Company, priority 1999, dated 2005).
Where a name gives a salt, the structure may show the parent alone.

Test system: amyloid β production in transfected H4 (human neuroglioma) cells stably expressing APP constructs
Assay: In vitro cell-based assay of inhibitors of amyloid β production (ELISA)
Details: Homo sapiens, 16 h, transfected H4 cells expressing APP, approximately 16 hours incubation, amyloid β in medium by ELISA; read-out: ACTIVITY (IC50, inhibition of amyloid β production)
How it was run: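 Sandwich ELISA read-out: Aβ in conditioned medium captured via C-terminal epitope mAb, detected with N-terminus-specific rabbit polyclonal, quantified from a standard curve. Compounds 10-100 μM, ~16 h exposure. Active = ≥50% inhibition vs control without significant cytotoxicity; dose-response follows.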

Row | IC50 [nM] | Molecule
1 | 100 to 500 | CCCCNC(=O)[C@@H](C)N(c1cc(Cl)ccc1F)S(=O)(=O)c1ccc(Cl)cc1 [Example 1299]
2 | ≤ 25 | CCNC(=O)OCC(C)N(c1cc(Cl)ccc1CO)S(=O)(=O)c1ccc(Cl)cc1 (centres unmarked) [Example 1279]

The remaining lines, values behind:

Row | Molecule | IC50 [nM]
3 | C[C@H](C(=O)N(CCN)c1ccc([N+](=O)[O-])cn1)N(c1cc(Cl)ccc1F)S(=O)(=O)c1ccc(Cl)cc1 [Example 1354] | > 500
4 | C[C@H](C(=O)NCc1ccccn1)N(c1cc(Cl)ccc1F)S(=O)(=O)c1ccc(Cl)cc1 [Example 1341] | 100 to 500

Same assay, conditions: Homo sapiens, 16 h, transfected H4 cells stably expressing APP constructs; approximately 16 hours incubation; amyloid β in medium by ELISA; read-out: ACTIVITY (IC50, inhibition of amyloid β production)

Row | IC50 [nM] | Molecule
5 | ≤ 25 | C[C@H](CCCS(N)(=O)=O)N(c1cc(Cl)ccc1Cl)S(=O)(=O)c1ccc(Cl)cc1 [Example 1210, N-[4-(aminosulfonyl)-1(R)-methylbutyl]-4-chloro-N-(2,5-dichlorophenyl)benzenesulfonamide]
6 | ≤ 25 | C[C@H](CCCN1CCSC1C(=O)O)N(c1cc(Cl)ccc1Cl)S(=O)(=O)c1ccc(Cl)cc1 (stereo partly drawn) [Example 1103, 4-chloro-N-(2,5-dichlorophenyl)-N-[4-(2-carboxy-3-thiazolidinyl)-1(R)-methylbutyl]benzenesulfonamide]

Same assay, conditions: Homo sapiens, 16 h, transfected H4 cells stably expressing APP; approximately 16 hours incubation; amyloid β in medium by ELISA; Table B; read-out: ACTIVITY (IC50, inhibition of amyloid β production)

Row | IC50 [nM] | Molecule
7 | 50 to 100 | C[C@H](c1ccccc1Cn1ccnc1)N(c1cc(F)ccc1F)S(=O)(=O)c1ccc(Cl)cc1 [Example 438, 4-chloro-N-(2,5-difluorophenyl)-N-{(1R)-1-[2-(1H-imidazol-1-ylmethyl)phenyl]ethyl}benzenesulfonamide hydrochloride]
8 | 50 to 100 | C[C@H](c1ccccc1CCOC(=O)NCc1ccccc1)N(c1cc(F)ccc1F)S(=O)(=O)c1ccc(Cl)cc1 [Example 389, 2-[2-((1R)-1-{[(4-chlorophenyl)sulfonyl]-2,5-difluoroanilino}ethyl)phenyl]ethyl benzylcarbamate]

Same assay, conditions: Homo sapiens, 16 h, transfected H4 cells stably expressing APP; approximately 16 hours incubation; amyloid β in medium by ELISA; read-out: ACTIVITY (IC50, inhibition of amyloid β production)

Row | IC50 [nM] | Molecule
9 | > 500 | C[C@@H](Oc1ccc(Cl)cc1N(C)S(=O)(=O)c1ccc(Cl)cc1)c1ccc(F)cc1CCCC(=O)O [Example 935, 4-[2-((1R)-1-{4-chloro-2-[[(4-chlorophenyl)sulfonyl](methyl)amino]phenoxy}ethyl)-5-fluorophenyl]butanoic acid]
10 | 100 to 500 | Cc1cccc(C(=O)N2CCCCC2CCOc2ccccc2CN(c2cc(F)ccc2F)S(=O)(=O)c2ccc(Cl)cc2)c1 (centres unmarked) [Example 860, 4-chloro-N-(2,5-difluorophenyl)-N-(2-{2-[1-(3-methylbenzoyl)-2-piperidinyl]ethoxy}benzyl)benzenesulfonamide]
11 | > 500 | O=S(=O)(c1ccc(Cl)cc1)N(Cc1ccccc1)Cc1ccccc1OCCCN1CCCCC1 [Example 886, N-benzyl-4-chloro-N-{2-[3-(1-piperidinyl)propoxy]benzyl}benzenesulfonamide hydrochloride]

The remaining lines, values behind:

Row | Molecule | IC50 [nM]
12 | O=S(=O)(c1ccc(Cl)cc1)n1c(-c2ccccc2OCCCN2CCCCC2)c(Cl)c2ccccc21 [Example 1043, 3-chloro-1-[(4-chlorophenyl)sulfonyl]-2-{2-[3-(1-piperidinyl)propoxy]phenyl}-1H-indole trifluoroacetate] | > 500
13 | CN(C)CCCOc1ccccc1CN(c1ccccc1)S(C)(=O)=O [Example 1082, N-{2-[3-(dimethylamino)propoxy]benzyl}-N-phenylmethanesulfonamide] | > 10000
14 | O=S(=O)(c1ccc(Cl)cc1)N(Cc1ccccc1OCCSC1CCCCC1)c1cc(F)ccc1F [Example 850, 4-chloro-N-{2-[2-(cyclohexylsulfanyl)ethoxy]benzyl}-N-(2,5-difluorophenyl)benzenesulfonamide] | 100 to 500
15 | Cc1ccc(C(=O)N2CCCCC2CCOc2ccccc2CN(c2cc(F)ccc2F)S(=O)(=O)c2ccc(Cl)cc2)cc1 (centres unmarked) [Example 884, 4-chloro-N-(2,5-difluorophenyl)-N-(2-{2-[1-(4-methylbenzoyl)-2-piperidinyl]ethoxy}benzyl)benzenesulfonamide] | > 500
16 | O=S(=O)(c1ccc(Cl)cc1)N(Cc1ccccc1C#CCCO)c1ccccc1 [Example 1040, 4-chloro-N-[2-(4-hydroxy-1-butynyl)benzyl}-N-phenylbenzenesulfonamide] | > 500
17 | O=S(=O)(c1ccc(Cl)cc1)N(Cc1ccccc1OCCCCN1CCCCC1)c1ccccc1 [Example 977, 4-chloro-N-phenyl-N-{2-[4-(1-piperidinyl)butoxy]benzyl}benzenesulfonamide hydrochloride] | > 500

Same assay, conditions: Homo sapiens; transfected H4 cells stably expressing APP; approximately 16 hours incubation; amyloid β in medium by ELISA; read-out: ACTIVITY (IC50, inhibition of amyloid β production)

Row | Molecule | IC50 [nM]
18 | CN1C2CCC1[C@@H](COc1ccccc1CN(c1ccccc1)S(=O)(=O)c1ccc(Cl)cc1)C2 (stereo partly drawn) [Example 941, 4-chloro-N-(2-{[(2S)-7-methyl-7-azabicyclo[2.2.1]hept-2-yl]methoxy}benzyl)-N-phenylbenzenesulfonamide hydrochloride] | > 500

Same assay, conditions: transfected H4 cells stably expressing APP constructs; approximately 16 hours incubation; amyloid β in medium by ELISA; read-out: ACTIVITY (IC50, inhibition of amyloid β production)

Row | Molecule | IC50 [nM]
19 | C[C@H](COC(=O)NCCCn1cnnn1)N(c1cc(Cl)ccc1Cl)S(=O)(=O)c1ccc(Cl)cc1 [Example 1248, 4-Chloro-N-(2,5-dichlorophenyl)-N-[2-[[N′-[3-(1H-tetrazol-1-yl)propylamino]carbonyl]oxy]-(R)-1-methylethyl]benzenesulfonamide] | ≤ 25
20 | CC[S+]([O-])CCCC[C@@H](C)N(c1cc(Cl)ccc1Cl)S(=O)(=O)c1ccc(Cl)cc1 (stereo partly drawn) [Example 1173, 4-chloro-N-[2,5-dichlorophenyl]-N-[1(R)-methyl-(5-ethylsulfinyl)pentyl]benzenesulfonamide] | ≤ 25
21 | C[C@H](COC(=O)N(CCCn1ccnc1)CC1CC1)N(c1cc(Cl)ccc1CO)S(=O)(=O)c1ccc(Cl)cc1 [Example 1251, 4-Chloro-N-[5-chloro-2-(hydroxymethyl)phenyl]-N-[2-[[[N′-[3-(1H-imidazol-1-yl)propyl]-N′-cyclopropylmethylamino]carbonyl]oxy]-(R)-1-methylethyl]benzenesulfonamide] | ≤ 25
22 | CC(C)C[C@H](NC(=O)CCCC[C@@H](C)N(c1cc(Cl)ccc1F)S(=O)(=O)c1ccc(Cl)cc1)C(=O)O [Example 1259, (R)-4-Chloro-N-(5-chloro-2-fluorophenyl)-N-[6-[N-(S)-[1-(carboxy)-3-methylbutyl]amino]-1-methyl-6-oxohexyl]benzenesulfonamide] | ≤ 25
23 | COC(=O)C[S+]([O-])CC[C@@H](C)N(c1cc(Cl)ccc1Cl)S(=O)(=O)c1ccc(Cl)cc1 (stereo partly drawn) [Example 1187, methyl(6R)-6-[(2,5-dichlorophenyl)-[(4-chlorophenyl)sulfonyl]-amino]-3-thioheptanoic acid, 3-oxide] | 50 to 100
24 | C[C@H](COC(=O)NCCc1c[nH]cn1)N(c1cc(Cl)ccc1F)S(=O)(=O)c1ccc(Cl)cc1 [Example 1245, 4-Chloro-N-(2-fluoro-5-chlorophenyl)-N-[2-[[N′-[2-(1H-imidazol-4-yl)ethylamino]carbonyl]oxy]-(R)-1-methylethyl]benzenesulfonamide] | ≤ 25

Same assay, conditions: transfected H4 cells stably expressing APP; approx. 16 h incubation; amyloid β in medium by ELISA; read-out: ACTIVITY (IC50, inhibition of amyloid β production)

Row | IC50 [nM] | Molecule
25 | 100 to 500 | benzyl 3-[2-(1-{[(4-chlorophenyl)sulfonyl]-2,5-difluoroanilino}ethyl)phenoxy]propyl(methyl)carbamate [Example 678]
26 | 100 to 500 | N-{3-[2-(1-{[(4-chlorophenyl)sulfonyl]-2,5-difluoroanilino}ethyl)phenoxy]propyl}-2,5-difluoro-N-methylbenzamide [Example 727]
27 | 100 to 500 | 2-((1R)-1-{[(4-chlorophenyl)sulfonyl]-2,5-difluoroanilino}ethyl)benzyl 2-phenylethylcarbamate [Example 743]

Row | Molecule | IC50 [nM]
28 | S-methyl 4-[2-(1-{3-[2-(1-{[(4-chlorophenyl)sulfonyl]-2,5-difluoroanilino}ethyl)phenoxy]butyl(ethyl)thiocarbamate [Example 714] | 100 to 500

Same assay, conditions: transfected H4 cells stably expressing APP; approximately 16 hours incubation; amyloid β in medium by ELISA; read-out: ACTIVITY (IC50, inhibition of amyloid β production)

Row | IC50 [nM] | Molecule
29 | 100 to 500 | 4-chloro-N-{3-[2-(1-{[(4-chlorophenyl)sulfonyl]-2,5-difluoroanilino}ethyl)phenoxy]propyl}-N-methyl-3-nitrobenzenesulfonamide [Example 807]
30 | > 500 | (2R)-2-{[(4-chlorophenyl)sulfonyl]-2,5-difluoroanilino}propyl nicotinate [Example 1058]
31 | > 500 | N-{3-[2-({[(4-chlorophenyl)sulfonyl]-2,5-difluoroanilino}methyl)phenoxy]propyl}-N,4-dimethyl-3-nitrobenzamide [Example 907]

The next lines start with the molecule.

Row | Molecule | IC50 [nM]
32 | N-{3-[2-(1-{[(4-chlorophenyl)sulfonyl]-2,5-difluoroanilino}ethyl)phenoxy]propyl}-4-(trifluoromethoxy)benzamide [Example 920] | > 500
33 | 3-bromo-N-{3-[2-(1-{[(4-chlorophenyl)sulfonyl]-2,5-difluoroanilino}ethyl)phenoxy]propyl}benzamide [Example 829] | 100 to 500
34 | 1-{3-[2-({[(4-chlorophenyl)sulfonyl]-2,5-difluoroanilino}methyl)phenoxy]propyl}-1-methylpiperidinium iodide [Example 1037] | > 500
35 | 2,2,2-trichloro-N-{3-[2-({[(4-chlorophenyl)sulfonyl]-2,5-difluoroanilino}methyl)phenoxy]propyl}-N-methylacetamide [Example 853] | 100 to 500
